According to BindingDB's records for doi:10.1016/j.bmcl.2008.10.124 (Schering-Plough Research Institute, 2009):

The compounds below were run against Genome polyprotein (Hepatitis C virus genotype 1a (isolate H77), UniProt P27958) (assay: Continuous Spectrophotometric Assay). Conditions: pH 6.5; 30 °C.
Experimental: Proteolytic cleavage of the ester linkage between the Nva (L-norvaline) and the chromophore (PAP) was monitored for change in absorbance at 370 nm. Initial velocities were determined using linear regression and kinetic constants were obtained by fitting the data to the Michaelis-Menten equation.

Genome polyprotein, sequence (P27958 1027-1657 limits assumed): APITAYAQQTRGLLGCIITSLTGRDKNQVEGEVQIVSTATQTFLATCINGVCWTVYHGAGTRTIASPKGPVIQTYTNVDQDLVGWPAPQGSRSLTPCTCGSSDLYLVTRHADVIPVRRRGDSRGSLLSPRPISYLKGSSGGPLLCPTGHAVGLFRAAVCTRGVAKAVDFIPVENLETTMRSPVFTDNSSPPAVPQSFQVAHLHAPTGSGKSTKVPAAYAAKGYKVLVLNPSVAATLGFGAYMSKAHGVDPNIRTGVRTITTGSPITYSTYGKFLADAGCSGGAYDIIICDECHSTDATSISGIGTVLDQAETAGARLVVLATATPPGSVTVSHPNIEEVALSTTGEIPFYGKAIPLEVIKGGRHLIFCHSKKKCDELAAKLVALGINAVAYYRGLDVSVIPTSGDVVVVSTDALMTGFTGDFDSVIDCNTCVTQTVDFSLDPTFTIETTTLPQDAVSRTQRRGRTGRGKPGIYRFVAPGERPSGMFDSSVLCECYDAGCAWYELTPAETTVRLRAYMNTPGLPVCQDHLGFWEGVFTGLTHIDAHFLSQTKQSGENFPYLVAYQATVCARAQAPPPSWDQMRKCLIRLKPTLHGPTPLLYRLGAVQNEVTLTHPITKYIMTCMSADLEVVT

First: CC[C@H](NC(=O)[C@@H]1[C@@H]2[C@H](CN1C(=O)[C@@H](NC(=O)N[C@H](CN(C)S(C)(=O)=O)C(C)(C)C)C(C)(C)C)C2(C)C)B1O[C@@H]2CC3CC(C3(C)C)[C@]2(C)O1 (stereo partly drawn) [(1R,2S,5S)-3-[(2S)-2-({[(2S)-1-[methane(methyl)sulfonamido]-3,3-dimethylbutan-2-yl]carbamoyl}amino)-3,3-dimethylbutanoyl]-6,6-dimethyl-N-[(1R)-1-[(2S,6R)-2,9,9-trimethyl-3,5-dioxa-4-boratricyclo[6.1.1.0^{2,6}]decan-4-yl]propyl]-3-azabicyclo[3.1.0]hexane-2-carboxamide]
Second: CN(C[C@@H](NC(=O)N[C@H](C(=O)N1C[C@H]2[C@@H]([C@H]1C(=O)N[C@@H](CC1CCC1)B1O[C@@H]3CC4CC(C4(C)C)[C@]3(C)O1)C2(C)C)C(C)(C)C)C(C)(C)C)S(C)(=O)=O (stereo partly drawn) [(1R,2S,5S)-N-[(1R)-2-cyclobutyl-1-[(2S,6R)-2,9,9-trimethyl-3,5-dioxa-4-boratricyclo[6.1.1.0^{2,6}]decan-4-yl]ethyl]-3-[(2S)-2-({[(2S)-1-[methane(methyl)sulfonamido]-3,3-dimethylbutan-2-yl]carbamoyl}amino)-3,3-dimethylbutanoyl]-6,6-dimethyl-3-azabicyclo[3.1.0]hexane-2-carboxamide]
The Ki of the first is 68-fold higher: 34 nM for the first, 0.5 nM for the second.

`CC[C@H](NC(=O)[C@@H]1[C@@H]2[C@H](CN1C(=O)[C@@H](NC(=O)NC(C)(C)C)C(C)(C)C)C2(C)C)B1O[C@@H]2CC3CC(C3(C)C)[C@]2(C)O1` (stereo partly drawn) [(1R,2S,5S)-3-[(2S)-2-[(tert-butylcarbamoyl)amino]-3,3-dimethylbutanoyl]-6,6-dimethyl-N-[(1R)-1-[(2S,6R)-2,9,9-trimethyl-3,5-dioxa-4-boratricyclo[6.1.1.0^{2,6}]decan-4-yl]propyl]-3-azabicyclo[3.1.0]hexane-2-carboxamide] and `CC[C@H](NC(=O)C1[C@@H]2[C@H](CN1C(=O)[C@@H](NC(=O)NC(C)(C)C)C(C)(C)C)C2(C)C)B1O[C@@H]2CC3CC(C3(C)C)[C@]2(C)O1` (stereo partly drawn) [(1R,5S)-3-[(2S)-2-[(tert-butylcarbamoyl)amino]-3,3-dimethylbutanoyl]-6,6-dimethyl-N-[(1R)-1-[(2S,6R)-2,9,9-trimethyl-3,5-dioxa-4-boratricyclo[6.1.1.0^{2,6}]decan-4-yl]propyl]-3-azabicyclo[3.1.0]hexane-2-carboxamide] are within 1.5-fold of each other in Ki: 500 nM for the first, 380 nM for the second.

`CC(C)(C)NC(=O)N[C@H](C(=O)N1C[C@H]2[C@@H](C1C(=O)N[C@@H](CC1CCC1)B(O)O)C2(C)C)C(C)(C)C` (stereo partly drawn) [(1R,5S)-3-[(2S)-2-[(tert-butylcarbamoyl)amino]-3,3-dimethylbutanoyl]-N-[(1R)-2-cyclobutyl-1-(dihydroxyboranyl)ethyl]-6,6-dimethyl-3-azabicyclo[3.1.0]hexane-2-carboxamide] and `CC(C)(C)NC(=O)N[C@H](C(=O)N1C[C@H]2[C@@H](C1C(=O)N[C@@H](CC1CCC1)B1O[C@@H]3CC4CC(C4(C)C)[C@]3(C)O1)C2(C)C)C(C)(C)C` (stereo partly drawn) [(1R,5S)-3-[(2S)-2-[(tert-butylcarbamoyl)amino]-3,3-dimethylbutanoyl]-N-[(1R)-2-cyclobutyl-1-[(2S,6R)-2,9,9-trimethyl-3,5-dioxa-4-boratricyclo[6.1.1.0^{2,6}]decan-4-yl]ethyl]-6,6-dimethyl-3-azabicyclo[3.1.0]hexane-2-carboxamide] are the same in Ki: 10 nM for the first, 10 nM for the second.
